Test results from patent US20230364119A1, “AUTOPHAGY ACTIVATOR” (Resonac Corporation, priority 2020, published 2023).

Tests used:
Format in all cases: cell-based
Beclin 1 gene = Beclin 1 gene expression promoting effect in human neuroblastoma in the presence of amyloid β
Method: (§1) In the presence of an autophagy activator, the expression levels of the LC3 gene, ATG5 gene, and Beclin 1 gene in human neuroblastoma (SH-SY5Y; obtained from ATCC) were measured by the following test method, and the effect of promoting the expression of the LC3 gene, ATG5 gene, and Beclin 1 gene by an autophagy activator was evaluated.
(§2) In the following examples and comparative examples, tests were performed by adding amyloid β, which is known to cause a decrease in autophagy in nerve cells, to each medium.
(§3) SH-SY5Y cells were prepared at a seeding density of 10000 cells/cm^2 and cultured for 24 hours in D-MEM medium/Ham's F-12 medium (manufactured by Sigma-Aldrich) to which 10% fetal bovine serum (manufactured by MP Biomedicals) was added. Next, in Example 15, the inositol derivative A dissolved in purified water was added to the medium such that the final concentration of the inositol derivative A was 10-4% (V/V). […]
(§4) Then, using Nucleospin (registered trademark) RNA kit (manufactured by Takara Bio Inc.), RNA was extracted from SH-SY5Y cells in each example, and cDNA was synthesized from the obtained RNA. Next, using this cDNA as a template, by quantitative real-time PCR, the expression level of each gene was quantified using primers (manufactured by Takara Bio Inc.) specific to the LC3 gene, ATG5 gene, and Beclin 1 gene, respectively. […]

LC3 gene [1] = assay: LC3 gene expression promoting effect in human neuroblastoma in the presence of amyloid β
Method: as §1, §2, §3, §4

LC3 gene [2] = assay: LC3 gene expression promoting effect in human senescent fibroblasts (quantitative real-time PCR)
Method: Senescent fibroblasts were prepared by the following procedure.
Normal human fibroblasts (NB1RGB, RIKEN BRC Cell Bank) were cultured until confluent in D-MEM medium (manufactured by Sigma-Aldrich) to which 10% fetal bovine serum (manufactured by MP Biomedicals) was added. Thereafter, the cells were treated with 250 μM aqueous hydrogen peroxide for 2 hours, and cultured for 24 hours in D-MEM medium to which fresh 10% fetal bovine serum was added. The treatment with aqueous hydrogen peroxide and the cell culture operation were repeated three times, and the obtained fibroblasts were used as senescent fibroblasts.
The prepared senescent fibroblasts were prepared at a seeding density of 10000 cells/cm^2 and cultured for 24 hours in D-MEM medium (manufactured by Sigma-Aldrich) to which 10% fetal bovine serum (manufactured by MP Biomedicals) was added. […]
as §4, with “senescent fibroblasts or normal human fibroblasts” for “SH-SY5Y cells”

ATG5 gene = ATG5 gene expression promoting effect in human neuroblastoma in the presence of amyloid β
Method: as §1, §2, §3, §4

[3] = SH-SY5Y cells with amyloid β, compared to Reference Example 3 (purified water only, no amyloid β)
[4] = SH-SY5Y cells, 20 μM amyloid β present, 48 hours, 10^−3% (V/V) inositol or inositol derivative A, with the vitamin derivative of the example where added, Reference Example 3 (purified water, no amyloid β) = 1.00

In the case of `O[C@H]1[C@H](O)[C@@H](O)[C@H](O)[C@@H](O)[C@H]1O` [Comparative Example 2, myo-inositol], the “expression level of the Beclin 1 gene, in words” value (Beclin 1 gene; [3]) was “slightly increased”, the “Relative gene expression level Beclin 1” value (Beclin 1 gene; [4]) was 1.31 and the “expression level of the LC3 gene, in words” value (LC3 gene [1]; [3]) was “slightly increased”. The “Relative gene expression level LC3” value (LC3 gene [1]; [4]) was 1.41, the “Relative gene expression level LC3” value (LC3 gene [2]; 24 hours, 10^−3% (V/V) inositol or inositol derivative A, with the vitamin derivative of the example where added, GAPDH-standardized, Comparative Example 1 (purified water) = 1.00) was 0.77 and the “expression level of the LC3 gene, in words” value (LC3 gene [2]; compared to Comparative Example 1 (purified water only)) was “more decreased”. The “expression level of the ATG5 gene, in words” value (ATG5 gene; [3]) was “slightly increased” and the “Relative gene expression level ATG5” value (ATG5 gene; [4]) was 1.39.
